# Data: patent US20200231614A1, “PSMA TARGETED RADIOHALOGENATED UREAS FOR CANCER RADIOTHERAPY” (THE JOHNS HOPKINS UNIVERSITY, priority 2015, published 2020)
# Read-outs that look alike come from different tables or passages of the source.
# Assays:
# PSMA = PSMA (Homo sapiens, UniProt Q04609); test: PSMA binding affinity (Ki); conditions: measured Ki, Table 11
# Excerpt: Lysine glutamate ureas compounds for radiotherapy are disclosed in FIG. 2.
# [1] = system: PSMA + PC-3 PiP and PSMA − PC-3 flu tumor xenografts; conditions: for Biodistribution: PC-3 PiP: PSMA+ tumor xenograft; for Biodistribution: PC-3 flu: PSMA− tumor xenograft
# LNCaP cells = test: Uptake by LNCaP cells in presence and absence of PSMA inhibitor; conditions: 2 h and 4 h, presence and absence of PSMA inhibitor 2-PSMA (FIG. 5A)
# [2] = system: PSMA+(PIP) tumors and PSMA−(Flu) tumors; type: in vivo; conditions: 3 to 19 days after single-bolus injection (20 μCi), PSMA+(PIP) vs PSMA−(Flu) tumors
# PSMA positive cells = test: In vitro radiotoxicity (cell kill); conditions: vs. free [^211At]astatide (FIG. 5B)
# [3] = 18 H post-injection, comparative Table 13
# PSMA, sequence (Q04609 whole entry): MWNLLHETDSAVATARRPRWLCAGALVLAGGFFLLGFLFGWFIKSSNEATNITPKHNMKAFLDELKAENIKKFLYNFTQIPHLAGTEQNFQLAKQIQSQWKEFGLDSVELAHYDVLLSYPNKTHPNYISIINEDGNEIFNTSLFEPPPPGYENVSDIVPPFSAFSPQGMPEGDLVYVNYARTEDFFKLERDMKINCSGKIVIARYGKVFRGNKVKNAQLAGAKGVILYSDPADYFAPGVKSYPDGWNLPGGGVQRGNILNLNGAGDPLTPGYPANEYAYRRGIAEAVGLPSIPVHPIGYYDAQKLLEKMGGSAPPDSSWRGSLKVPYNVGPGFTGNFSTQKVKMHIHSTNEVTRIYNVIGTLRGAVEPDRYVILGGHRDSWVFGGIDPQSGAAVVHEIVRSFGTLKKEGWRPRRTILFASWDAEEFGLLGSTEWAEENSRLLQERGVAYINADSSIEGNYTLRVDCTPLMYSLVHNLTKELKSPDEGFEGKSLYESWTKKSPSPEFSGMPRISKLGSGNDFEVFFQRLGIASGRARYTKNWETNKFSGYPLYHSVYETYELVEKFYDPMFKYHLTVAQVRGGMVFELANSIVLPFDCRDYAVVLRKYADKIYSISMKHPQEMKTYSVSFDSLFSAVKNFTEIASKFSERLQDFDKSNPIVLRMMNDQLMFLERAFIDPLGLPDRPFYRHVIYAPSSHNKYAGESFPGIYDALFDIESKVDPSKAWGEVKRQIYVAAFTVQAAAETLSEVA
smiles,measurement,setting,value
"O=C(O)CC[C@H](NC(=O)N[C@@H](CCC(=O)NCCc1ccc(I)cc1)C(=O)O)C(=O)O [HS-549, (((5)-1-Carboxy-4-((4-iodophenethyl)amino)-4-oxobutyl)carbamoyl)-L-glutamic Acid]",Ki,PSMA,10 pM
"O=C(O)CC[C@H](NC(=O)NC(CCCCNC(=O)c1ccc([211At])cc1)C(=O)O)C(=O)O (stereo partly drawn) [[^211At]YC-I-27, (2S)-2-(3-(1-Carboxy-5-(4-[^211At]asatatobenzamido)pentyl)ureido)pentanedioic Acid]",Biodistribution: Sm int.,[1]; 1 H post-injection,3.67 ± 0.65 % ID/g
same,Biodistribution: bladder,[1]; 1 H post-injection,5.45 ± 2.57 % ID/g
same,Biodistribution: blood,[1]; 1 H post-injection,1.67 ± 0.32 % ID/g
same,Biodistribution: heart,[1]; 1 H post-injection,2.36 ± 0.48 % ID/g
same,Biodistribution: kidney,[1]; 1 H post-injection,71.5 ± 12.0 % ID/g
same,Biodistribution: liver,[1]; 1 H post-injection,2.11 ± 0.65 % ID/g
same,Biodistribution: lung,[1]; 1 H post-injection,5.82 ± 1.28 % ID/g
same,Biodistribution: muscle,[1]; 1 H post-injection,0.95 ± 0.15 % ID/g
same,Biodistribution: spleen,[1]; 1 H post-injection,29.2 ± 10.2 % ID/g
same,Biodistribution: stomach,[1]; 1 H post-injection,10.1 ± 1.66 % ID/g
same,Biodistribution: thyroid,[1]; 1 H post-injection,3.68 ± 1.10 % ID/g
same,Biodistribution: Sm int.,[1]; 2 H post-injection,2.08 ± 0.41 % ID/g
same,Biodistribution: bladder,[1]; 2 H post-injection,4.55 ± 0.86 % ID/g
same,Biodistribution: blood,[1]; 2 H post-injection,1.26 ± 0.15 % ID/g
same,Biodistribution: heart,[1]; 2 H post-injection,1.79 ± 0.31 % ID/g
same,Biodistribution: kidney,[1]; 2 H post-injection,60.2 ± 6.16 % ID/g
same,Biodistribution: liver,[1]; 2 H post-injection,1.58 ± 0.21 % ID/g
same,Biodistribution: lung,[1]; 2 H post-injection,6.30 ± 1.57 % ID/g
same,Biodistribution: muscle,[1]; 2 H post-injection,0.81 ± 0.12 % ID/g
same,Biodistribution: spleen,[1]; 2 H post-injection,20.3 ± 5.21 % ID/g
same,Biodistribution: stomach,[1]; 2 H post-injection,9.29 ± 2.86 % ID/g
same,Biodistribution: thyroid,[1]; 2 H post-injection,3.56 ± 0.95 % ID/g
same,tumor/kidney ratio,[1]; 2 H post-injection,0.3
same,Biodistribution: Sm int.,[1]; 4 H post-injection,1.85 ± 0.23 % ID/g
same,Biodistribution: bladder,[1]; 4 H post-injection,4.17 ± 0.74 % ID/g
same,Biodistribution: blood,[1]; 4 H post-injection,0.99 ± 0.12 % ID/g
same,Biodistribution: heart,[1]; 4 H post-injection,1.65 ± 0.39 % ID/g
same,Biodistribution: kidney,[1]; 4 H post-injection,60.2 ± 11.5 % ID/g
same,Biodistribution: liver,[1]; 4 H post-injection,1.63 ± 0.10 % ID/g
same,Biodistribution: lung,[1]; 4 H post-injection,5.54 ± 1.79 % ID/g
same,Biodistribution: muscle,[1]; 4 H post-injection,0.72 ± 0.14 % ID/g
same,Biodistribution: spleen,[1]; 4 H post-injection,20.3 ± 3.55 % ID/g
same,Biodistribution: stomach,[1]; 4 H post-injection,13.3 ± 3.12 % ID/g
same,Biodistribution: thyroid,[1]; 4 H post-injection,3.83 ± 1.18 % ID/g
same,Biodistribution: Sm int.,[1]; 18 H post-injection,1.08 ± 0.10 % ID/g
same,Biodistribution: bladder,[1]; 18 H post-injection,2.51 ± 0.39 % ID/g
same,Biodistribution: blood,[1]; 18 H post-injection,0.53 ± 0.05 % ID/g
same,Biodistribution: heart,[1]; 18 H post-injection,1.10 ± 0.16 % ID/g
same,Biodistribution: kidney,[1]; 18 H post-injection,57.4 ± 7.36 % ID/g
same,Biodistribution: liver,[1]; 18 H post-injection,0.82 ± 0.07 % ID/g
same,Biodistribution: lung,[1]; 18 H post-injection,3.61 ± 0.40 % ID/g
same,Biodistribution: muscle,[1]; 18 H post-injection,0.49 ± 0.27 % ID/g
same,Biodistribution: spleen,[1]; 18 H post-injection,8.01 ± 2.04 % ID/g
same,Biodistribution: stomach,[1]; 18 H post-injection,9.42 ± 3.04 % ID/g
same,Biodistribution: thyroid,[1]; 18 H post-injection,6.50 ± 1.97 % ID/g
same,Non-target organ uptake: spleen,[1]; [3],8.0 % D/g
same,Non-target organ uptake: stomach,[1]; [3],9.4 % D/g
same,Non-target organ uptake: thyroid,[1]; [3],6.5 % D/g
same,tumor/kidney ratio,[1]; 21 H post-injection,0.5
same,Biodistribution: PC-3 PiP,[1]; 1 H post-injection,17.9 ± 2.98 % ID/g
same,Biodistribution: PC-3 PiP,[1]; 2 H post-injection,20.7 ± 3.42 % ID/g
same,Biodistribution: PC-3 PiP,[1]; 4 H post-injection,18.3 ± 2.90 % ID/g
same,Biodistribution: PC-3 PiP,[1]; 18 H post-injection,31.1 ± 9.78 % ID/g
same,Biodistribution: PC-3 flu,[1]; 1 H post-injection,2.18 ± 0.44 % ID/g
same,Biodistribution: PC-3 flu,[1]; 2 H post-injection,1.81 ± 0.27 % ID/g
same,Biodistribution: PC-3 flu,[1]; 4 H post-injection,1.53 ± 0.22 % ID/g
same,Biodistribution: PC-3 flu,[1]; 18 H post-injection,1.17 ± 0.20 % ID/g
same,PSMA positive tumor uptake (in words),"[1]; biodistributions of Tables 2, 3, 9, 10",demonstrated PSMA positive tumor uptake
same,Uptake by LNCaP cells,LNCaP cells,"is blocked, indicating target (PSMA) specific binding"
same,Tumor growth inhibition,[2],PSMA Specific Tumor Growth Inhibition
same,Cell kill,PSMA positive cells,effectively kill cell relative to the untargeted alpha emitter
